Laboratory results published in ChEMBL document CHEMBL4385603 (J Med Chem, 2019).
pKi: −log10 of the molar value.

What was measured:
[1] = molecular target: T1, Induced myeloid leukemia cell differentiation protein Mcl-1 (Homo sapiens, UniProt Q07820)
Description: Inhibition of FITC-labeled Bim peptide binding to His6-tagged MBP-fused Mcl-1 (unknown origin) in presence of 1% fetal bovine serum by fluorescence polarization assay

[2] = molecular target: T1, Induced myeloid leukemia cell differentiation protein Mcl-1; remark: listed apart in the source
Description: Inhibition of FITC-labeled Bim peptide binding to His6-tagged MBP-fused Mcl-1 (unknown origin) by fluorescence polarization assay

[3] = molecular target: Apoptosis regulator Bcl-2 (Homo sapiens, UniProt P10415)
Description: Inhibition of FITC-labeled Bak peptide binding to Bcl-2 (unknown origin) after 0.5 hrs by fluorescence polarization assay

NCI-H929 = assay: cells; settings: Homo sapiens, NCI-H929, 72 h
Description: Antiproliferative activity against Mcl1-sensitive human NCI-H929 cells assessed as cell growth inhibition after 72 hrs by Celltiter-glo luminescence assay

[4] = molecular target: T1, Induced myeloid leukemia cell differentiation protein Mcl-1; remark: listed apart in the source
Description: Inhibition of FITC-labeled Bak peptide binding to MBP-fused Mcl-1 (unknown origin) measured after 3 hrs in presence of 1% fetal bovine serum by TR-FRET assay

K562 = assay: cells; settings: Homo sapiens, K562, 72 h
Description: Antiproliferative activity against Mcl1-insensitive human K562 cells assessed as cell growth inhibition after 72 hrs by Celltiter-glo luminescence assay

Bcl-2-like protein 1 = Bcl-2-like protein 1 (Homo sapiens, UniProt Q07817)
Description: Inhibition of FITC-labeled Bak peptide binding to Bcl-xL (unknown origin) after 0.5 hrs by fluorescence polarization assay

[5] = molecular target: T1, Induced myeloid leukemia cell differentiation protein Mcl-1; remark: listed apart in the source
Description: Inhibition of FITC-labeled Bak peptide binding to MBP-fused Mcl-1 (unknown origin) measured after 3 hrs by TR-FRET assay

Chain of Bcl-2-like protein 1 (Q07817 whole entry): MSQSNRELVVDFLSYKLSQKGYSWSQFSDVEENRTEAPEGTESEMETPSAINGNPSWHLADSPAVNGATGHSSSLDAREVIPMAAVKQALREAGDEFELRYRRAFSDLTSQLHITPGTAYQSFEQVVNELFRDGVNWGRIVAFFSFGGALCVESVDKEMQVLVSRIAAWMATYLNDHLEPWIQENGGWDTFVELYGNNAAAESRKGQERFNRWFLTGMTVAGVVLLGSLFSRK
T1 sequence (Q07820 whole entry): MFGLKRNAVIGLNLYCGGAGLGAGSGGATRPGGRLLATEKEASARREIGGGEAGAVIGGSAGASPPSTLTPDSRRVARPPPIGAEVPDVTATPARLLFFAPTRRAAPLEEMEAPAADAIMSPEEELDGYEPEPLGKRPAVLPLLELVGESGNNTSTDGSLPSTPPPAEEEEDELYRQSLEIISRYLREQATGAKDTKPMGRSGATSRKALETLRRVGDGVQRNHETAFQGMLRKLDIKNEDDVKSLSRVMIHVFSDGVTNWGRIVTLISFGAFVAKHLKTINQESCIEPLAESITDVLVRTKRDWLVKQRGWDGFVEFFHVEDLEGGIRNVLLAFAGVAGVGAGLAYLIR
Chain of Apoptosis regulator Bcl-2 (P10415 whole entry): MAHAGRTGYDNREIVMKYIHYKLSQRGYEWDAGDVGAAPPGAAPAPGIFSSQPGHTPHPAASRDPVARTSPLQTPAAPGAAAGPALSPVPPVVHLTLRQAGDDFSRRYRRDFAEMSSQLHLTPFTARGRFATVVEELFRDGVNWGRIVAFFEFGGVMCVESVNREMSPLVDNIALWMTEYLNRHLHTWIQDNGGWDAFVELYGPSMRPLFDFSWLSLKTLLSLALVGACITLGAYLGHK

SMILES	pKi [1]	pKi [2]	also measured
Cc1cc(OCCCc2c3n(c4c(-c5c(C)nn(C)c5C)c(Cl)ccc24)C(C)CCNC3=O)cc(C)c1Cl (configuration not stated)	< 6.70	7.37	–
Cc1cc(OCCCc2c3n(c4c(-c5c(C)nn(C)c5C)c(Cl)ccc24)CCN(Cc2cccc(C(=O)O)c2)C3=O)cc(C)c1Cl	7.28	8.02	–
Cc1cc(OCCCc2c3n(c4c(-c5c(C)nn(C)c5C)c(Cl)ccc24)CC(C)CN(Cc2cccc(C(=O)O)c2)C3=O)cc(C)c1Cl (configuration not stated)	6.84	7.96	–
Cc1cc(OCCCc2c3n(c4c(-c5c(C)nn(C)c5C)c(Cl)ccc24)[C@H](C)CN(c2cccc(C(=O)O)c2)C3=O)cc(C)c1Cl	–	–	pKi [3]: 6.00; GI50 (NCI-H929): 4400 nM; pKi [4]: 8.59; GI50 (K562): > 12500 nM; pKi (Bcl-2-like protein 1): < 4.40; pKi [5]: 8.85
Cc1cc(OCCCc2c3n(c4c(-c5c(C)nn(C)c5C)c(Cl)ccc24)CCNC3=O)cc(C)c1Cl	< 6.70	7.46	–
Cc1cc(OCCCc2c3n(c4c(-c5c(C)nn(C)c5C)c(Cl)ccc24)C[C@@H](C)N(Cc2ccc(C(=O)O)o2)C3=O)cc(C)c1Cl	7.41	8.23	–
Cc1cc(OCCCc2c3n(c4c(-c5c(C)nn(C)c5C)c(Cl)ccc24)[C@H](C)CN(c2cc(C(=O)O)c4ccn(C)c4c2)C3=O)cc(C)c1Cl	–	–	pKi [3]: 6.11; GI50 (NCI-H929): 820 nM; pKi [4]: 8.82; GI50 (K562): > 12500 nM; pKi (Bcl-2-like protein 1): < 4.40; pKi [5]: 9.68
Cc1cc(OCCCc2c3n(c4c(-c5c(C)nn(C)c5C)c(Cl)ccc24)C[C@H](C)N(Cc2ccc(C(=O)O)cc2)C3=O)cc(C)c1Cl	7.27	8.02	–
Cc1cc(OCCCc2c3n(c4c(-c5c(C)nn(C)c5C)c(Cl)ccc24)[C@H](C)CN(c2cc(C(=O)O)cc4c2ccn4C)C3=O)cc(C)c1Cl	–	–	pKi [3]: 6.20; GI50 (NCI-H929): 2100 nM; pKi [4]: 8.17; GI50 (K562): > 12500 nM; pKi (Bcl-2-like protein 1): < 4.40; pKi [5]: 8.89
Cc1cc(OCCCc2c3n(c4c(-c5c(C)nn(C)c5C)c(Cl)ccc24)[C@H](C)CN(c2ccc(C(=O)O)cc2)C3=O)cc(C)c1Cl	–	–	pKi [3]: 6.16; GI50 (NCI-H929): 4000 nM; pKi [4]: 8.35; GI50 (K562): > 12500 nM; pKi (Bcl-2-like protein 1): < 4.40; pKi [5]: 8.89
Cc1cc(OCCCc2c3n(c4c(-c5c(C)nn(C)c5C)c(Cl)ccc24)[C@H](C)CN(c2cc(C(=O)O)cc4c2OCO4)C3=O)cc(C)c1Cl	–	–	pKi [3]: 6.20; GI50 (NCI-H929): 1700 nM; pKi [4]: 8.85; GI50 (K562): > 12500 nM; pKi (Bcl-2-like protein 1): 4.60; pKi [5]: 9.38
Cc1cc(OCCCc2c3n(c4c(-c5c(C)nn(C)c5C)c(Cl)ccc24)CCC(C)N(Cc2ccc(C(=O)O)cc2)C3=O)cc(C)c1Cl (configuration not stated)	7.38	8.18	–
Cc1cc(OCCCc2c3n(c4c(-c5c(C)nn(C)c5C)c(Cl)ccc24)[C@@H](C)CN(Cc2ccc(C(=O)O)cc2)C3=O)cc(C)c1Cl	6.72	7.46	–
Cc1cc(OCCCc2c3n(c4c(-c5c(C)nn(C)c5C)c(Cl)ccc24)[C@@H](C)CN(Cc2cccc(C(=O)O)c2)C3=O)cc(C)c1Cl	6.77	7.43	–
Cc1cc(OCCCc2c3n(c4c(-c5c(C)nn(C)c5C)c(Cl)ccc24)[C@H](C)CN(c2cn(C)c4cc(C(=O)O)ccc24)C3=O)cc(C)c1Cl	–	–	pKi [3]: 6.30; GI50 (NCI-H929): 290 nM; pKi [4]: 9.42; GI50 (K562): > 12500 nM; pKi (Bcl-2-like protein 1): < 4.40; pKi [5]: 10.09
Cc1cc(OCCCc2c3n(c4c(-c5c(C)nn(C)c5C)c(Cl)ccc24)[C@H](C)CN(Cc2cccc(C(=O)O)c2)C3=O)cc(C)c1Cl	7.59	8.96	–
Cc1cc(OCCCc2c3n(c4c(-c5c(C)nn(C)c5C)c(Cl)ccc24)CC(C)CN(Cc2ccc(C(=O)O)o2)C3=O)cc(C)c1Cl (configuration not stated)	7.09	8.12	–
Cc1cc(OCCCc2c3n(c4c(-c5c(C)nn(C)c5C)c(Cl)ccc24)[C@@H](C)CN(Cc2ccc(C(=O)O)o2)C3=O)cc(C)c1Cl	6.71	7.66	–
Cc1cc(OCCCc2c3n(c4c(-c5c(C)nn(C)c5C)c(Cl)ccc24)CCC(C)NC3=O)cc(C)c1Cl (configuration not stated)	< 6.70	7.15	–
Cc1cc(OCCCc2c3n(c4c(-c5c(C)nn(C)c5C)c(Cl)ccc24)[C@H](C)CN(c2cccc4c(C(=O)O)cccc24)C3=O)cc(C)c1Cl	–	–	pKi [3]: 6.42; pKi [4]: 9.11; GI50 (K562): 2500 nM; pKi (Bcl-2-like protein 1): 4.59; pKi [5]: 9.48
Cc1cc(OCCCc2c3n(c4c(-c5c(C)nn(C)c5C)c(Cl)ccc24)CC(C)CNC3=O)cc(C)c1Cl (configuration not stated)	6.82	7.38	–
Cc1cc(OCCCc2c3n(c4c(-c5c(C)nn(C)c5C)c(Cl)ccc24)[C@H](C)CN(Cc2ccc(C(=O)O)cc2)C3=O)cc(C)c1Cl	8.17	9.11	–
Cc1cc(OCCCc2c3n(c4c(-c5c(C)nn(C)c5C)c(Cl)ccc24)C[C@@H](C)N(Cc2cccc(C(=O)O)c2)C3=O)cc(C)c1Cl	7.17	8.68	–
Cc1cc(OCCCc2c3n(c4c(-c5c(C)nn(C)c5C)c(Cl)ccc24)C[C@@H](C)NC3=O)cc(C)c1Cl	6.82	7.57	–
Cc1cc(OCCCc2c3n(c4c(-c5c(C)nn(C)c5C)c(Cl)ccc24)CCC(C)N(Cc2ccc(C(=O)O)o2)C3=O)cc(C)c1Cl (configuration not stated)	6.92	8.09	–
Cc1cc(OCCCc2c3n(c4c(-c5c(C)nn(C)c5C)c(Cl)ccc24)CC(C)CN(Cc2ccc(C(=O)O)cc2)C3=O)cc(C)c1Cl (configuration not stated)	7.66	8.15	–

The next lines start with results.

pKi [1]	pKi [2]	SMILES	also measured
7.01	8.00	Cc1cc(OCCCc2c3n(c4c(-c5c(C)nn(C)c5C)c(Cl)ccc24)C[C@H](C)N(Cc2cccc(C(=O)O)c2)C3=O)cc(C)c1Cl	–
7.29	8.14	Cc1cc(OCCCc2c3n(c4c(-c5c(C)nn(C)c5C)c(Cl)ccc24)CCN(Cc2ccc(C(=O)O)cc2)C3=O)cc(C)c1Cl	–
6.86	8.24	Cc1cc(OCCCc2c3n(c4c(-c5c(C)nn(C)c5C)c(Cl)ccc24)CCN(Cc2ccc(C(=O)O)o2)C3=O)cc(C)c1Cl	–
6.82	8.06	Cc1cc(OCCCc2c3n(c4c(-c5c(C)nn(C)c5C)c(Cl)ccc24)C[C@H](C)N(Cc2ccc(C(=O)O)o2)C3=O)cc(C)c1Cl	–
7.28	8.74	Cc1cc(OCCCc2c3n(c4c(-c5c(C)nn(C)c5C)c(Cl)ccc24)C[C@@H](C)N(Cc2ccc(C(=O)O)cc2)C3=O)cc(C)c1Cl	–
6.84	7.14	Cc1cc(OCCCc2c3n(c4c(-c5c(C)nn(C)c5C)c(Cl)ccc24)C[C@H](C)NC3=O)cc(C)c1Cl	–
< 6.70	7.92	Cc1cc(OCCCc2c3n(c4c(-c5c(C)nn(C)c5C)c(Cl)ccc24)CCC(C)N(Cc2cccc(C(=O)O)c2)C3=O)cc(C)c1Cl (configuration not stated)	–
7.59	9.00	Cc1cc(OCCCc2c3n(c4c(-c5c(C)nn(C)c5C)c(Cl)ccc24)[C@H](C)CN(Cc2ccc(C(=O)O)o2)C3=O)cc(C)c1Cl	–
7.00	7.92	Cc1cc(OCCCc2c3n(c4c(-c5c(C)nn(C)c5C)c(Cl)ccc24)CCCNC3=O)cc(C)c1Cl	–
